Measured values as given in PMC4022547 (Molecular Brain, 2014).
“And” between values parts separate entries of the source, which are not always exact repeats. Equal values may be shown once.

Assays:
[1] = target: hα6 + WT hβ2 + hβ3^V9’S nAChR (Homo sapiens, UniProt P17787+Q15825); conditions: 100 μM nicotine; 3 days after cRNA injection
Procedure: (§1) We planned to introduce identical amounts of cRNA, presumably producing equal amounts of each subunit protein, into oocytes largely due to lack of information about the levels of mRNA for each subunits that compose α6*-nAChRs in neurons or other cells. Concentrations of cRNAs for each nAChR α and β subunits (WT, mutant or variant) were adjusted to 500 ng μL^−1. We provisionally assumed that hα6 or its variants in association with hβ2 or hβ4 subunits would form complexes having 2:3 and/or 3:2 ratios of the indicated subunits and that oocytes also injected with WT or mutant form of β3 subunits (i.e., β3^V9’S) would express nAChR with 2:2:1 ratios of α:β:(β3 or β3^V9’S) subunits. For expression of binary nAChRs (i.e., two subunit containing nAChRs; α + β but not β3) cRNA mixtures were prepared by mixing 1 μL of cRNA for each subunit and an additional μL of RNAse free water (i.e., total volume 3 μL). Similarly for expression of ternary nAChRs [i.e., three subunit containing nAChRs; (α + β) + (β3 or β3^V9’S)] cRNA mixtures were prepared by mixing 1 μL of cRNA for each subunit. Several preparations of each mixture were prepared and stored at −80°C until further use. Injection of 138 nL of cRNA, out of 3 μL cRNA mixtures, into each oocyte would deliver ~23 ng of cRNA for each subunit whether binary or ternary nAChRs are expressed.
(§2) Two to 5 days after injection, oocytes were placed in a small-volume chamber and continuously perfused with OR2. The chamber was grounded through an agarose bridge. The oocytes were voltage-clamped at −70 mV (unless otherwise noted) to measure agonist or antagonist induced currents using Axoclamp 900A and pClamp 10.2 software (Molecular Devices, Sunnyvale, CA). The current signal was low-pass filtered at 10 Hz with the built-in low-pass Bessel filter in the Axoclamp 900A and digitized at 20 Hz with Axon Digidata1440A and pClamp10. […] Drugs (agonists and antagonists) were prepared daily in OR2. Drug was applied using a Valvelink 8.2 perfusion system (Automate scientific, Berkeley, CA). […] Then for the purpose of comparison electrophysiological recordings were performed in a given day in a given batch of oocytes following the same order of injections. […] All hβ4*-nAChR recordings were done in similar conditions to facilitate comparisons between hα6hβ4- and hα6hβ4hβ3-nAChRs. All electrophysiological measurements were conducted or checked in at least two batches of oocytes.
(§3) Raw data was collected and processed in part using pClamp 10.2 (Molecular Devices, Sunnyvale, CA), Origin 7.5 (OriginLab Corporation, Northampton, MA) and a spreadsheet (Excel; Microsoft, Bellevue, WA). Peak current amplitudes (Imax) are reported as mean ± SEM (for results from at least three oocytes, i.e., n = 3).

[2] = target: hα6(A112V) + WT hβ2 + hβ3^V9’S nAChR (Homo sapiens, UniProt P17787+Q15825, A112V); conditions: 100 μM nicotine; 3 days after cRNA injection
Procedure: as §1, §2, §3

[3] = target: hα6(A112V) + hβ4 + hβ3 nAChR (Homo sapiens, UniProt P30926+Q15825, A112V); conditions: 100 μM nicotine; oocytes clamped at −70 mV
Procedure: as §1, §2, §3

hα6(A112V) + hβ4 nAChR = hα6(A112V) + hβ4 nAChR (Homo sapiens, UniProt P30926+Q15825, A112V); conditions: 100 μM nicotine; oocytes clamped at −70 mV
Procedure: as §1, §2, §3

[4] = target: hα6(D92E) + WT hβ2 + hβ3^V9’S nAChR (Homo sapiens, UniProt P17787+Q15825, D92E); conditions: nicotine
Procedure: as §1, §2, §3

hα6(D92E) + hβ4 nAChR = hα6(D92E) + hβ4 nAChR (Homo sapiens, UniProt P30926+Q15825, D92E); conditions: 100 μM nicotine; oocytes clamped at −70 mV
Procedure: as §1, §2, §3

[5] = target: hα6(I226T) + WT hβ2 + hβ3^V9’S nAChR (Homo sapiens, UniProt P17787+Q15825, I226T); conditions: 100 μM nicotine
Procedure: as §1, §2, §3

[6] = target: hα6(I226T) + hβ4 + hβ3 nAChR (Homo sapiens, UniProt P30926+Q15825, I226T); conditions: 100 μM nicotine; oocytes clamped at −70 mV
Procedure: as §1, §2, §3

[7] = target: hα6(N203T) + WT hβ2 + hβ3^V9’S nAChR (Homo sapiens, UniProt P17787+Q15825, N203T); conditions: 100 μM nicotine
Procedure: as §1, §2, §3

[8] = target: hα6(S156R) + WT hβ2 + hβ3^V9’S nAChR (Homo sapiens, UniProt P17787+Q15825, S156R); conditions: nicotine
Procedure: as §1, §2, §3

[9] = target: hα6^D57Nhβ4hβ3^V9’S-nAChR (Homo sapiens, UniProt P30926+Q15825, D57N); conditions: nicotine (100 μM), ACh (100 μM) or atropine (1000 μM)
Procedure: as §1, §2

[10] = target: hα6^N171Khβ4β3^V9’S-nAChR (Homo sapiens, UniProt P30926+Q15825, N171K); conditions: nicotine (100 μM), ACh (100 μM) or atropine (1000 μM)
Procedure: as §1, §2

[11] = target: hα6^R87C + hβ4 + hβ3^V9’S nAChR (Homo sapiens, UniProt P30926+Q15825, R87C); conditions: nicotine (100 μM), ACh (100 μM) or atropine (1000 μM)
Procedure: as §1, §2

[12] = target: hα6^S156Rhβ4hβ3^V9’S-nAChR (Homo sapiens, UniProt P30926+Q15825, S156R); conditions: nicotine (100 μM), ACh (100 μM) or atropine (1000 μM)
Procedure: as §1, §2

hα6hβ4hβ3^V9’S-nAChR = hα6hβ4hβ3^V9’S-nAChR (Homo sapiens, UniProt P30926+Q05901+Q15825, V273S); conditions: nicotine (100 μM), ACh (100 μM) or atropine (1000 μM); spontaneously opening channels
Procedure: as §1, §2

hα6 + hβ4 nAChR = hα6 + hβ4 nAChR (Homo sapiens, UniProt P30926+Q15825); set-up: method as in Kuryatov et al. (2000) [29]; conditions: ref Kuryatov et al. (2000) [29]; cited from earlier work
hα6 + hβ4 + hβ3 nAChR = hα6 + hβ4 + hβ3 nAChR (Homo sapiens, UniProt P30926+Q15825); set-up: method as in PMID 11044728; conditions: ref [29]; cited from earlier work

hα6(N203T) + WT hβ2 + hβ3^V9’S nAChR, sequence (Q15825 26-494 N203T): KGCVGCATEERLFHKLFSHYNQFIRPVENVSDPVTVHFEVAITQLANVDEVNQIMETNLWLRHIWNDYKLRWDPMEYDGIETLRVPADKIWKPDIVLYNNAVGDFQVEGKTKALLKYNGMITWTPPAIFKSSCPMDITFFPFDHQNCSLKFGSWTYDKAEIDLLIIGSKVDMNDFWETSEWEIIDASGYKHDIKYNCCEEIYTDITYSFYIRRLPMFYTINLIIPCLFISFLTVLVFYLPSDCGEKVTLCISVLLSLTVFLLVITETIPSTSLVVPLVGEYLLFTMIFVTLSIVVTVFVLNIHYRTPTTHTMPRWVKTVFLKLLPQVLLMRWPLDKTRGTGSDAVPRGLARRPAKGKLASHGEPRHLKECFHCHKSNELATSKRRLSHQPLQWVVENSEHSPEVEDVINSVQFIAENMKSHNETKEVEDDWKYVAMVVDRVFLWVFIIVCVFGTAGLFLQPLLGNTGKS
hα6(N203T) + WT hβ2 + hβ3^V9’S nAChR, sequence (P17787 26-502): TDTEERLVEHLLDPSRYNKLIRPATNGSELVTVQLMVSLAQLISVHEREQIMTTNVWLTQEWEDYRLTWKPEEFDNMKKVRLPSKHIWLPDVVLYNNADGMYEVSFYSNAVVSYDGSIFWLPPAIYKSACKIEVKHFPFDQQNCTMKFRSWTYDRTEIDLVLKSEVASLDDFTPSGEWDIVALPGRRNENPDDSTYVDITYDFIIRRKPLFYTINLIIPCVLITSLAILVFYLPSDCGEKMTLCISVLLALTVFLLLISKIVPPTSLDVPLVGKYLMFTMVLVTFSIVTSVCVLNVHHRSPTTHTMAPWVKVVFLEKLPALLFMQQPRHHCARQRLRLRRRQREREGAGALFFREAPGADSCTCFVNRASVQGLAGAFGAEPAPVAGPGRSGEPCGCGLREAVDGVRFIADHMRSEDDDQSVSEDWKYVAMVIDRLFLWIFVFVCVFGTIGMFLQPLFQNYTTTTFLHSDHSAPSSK
hα6(N203T) + WT hβ2 + hβ3^V9’S nAChR, sequence (Q05901 25-458 V273S partner limits assumed): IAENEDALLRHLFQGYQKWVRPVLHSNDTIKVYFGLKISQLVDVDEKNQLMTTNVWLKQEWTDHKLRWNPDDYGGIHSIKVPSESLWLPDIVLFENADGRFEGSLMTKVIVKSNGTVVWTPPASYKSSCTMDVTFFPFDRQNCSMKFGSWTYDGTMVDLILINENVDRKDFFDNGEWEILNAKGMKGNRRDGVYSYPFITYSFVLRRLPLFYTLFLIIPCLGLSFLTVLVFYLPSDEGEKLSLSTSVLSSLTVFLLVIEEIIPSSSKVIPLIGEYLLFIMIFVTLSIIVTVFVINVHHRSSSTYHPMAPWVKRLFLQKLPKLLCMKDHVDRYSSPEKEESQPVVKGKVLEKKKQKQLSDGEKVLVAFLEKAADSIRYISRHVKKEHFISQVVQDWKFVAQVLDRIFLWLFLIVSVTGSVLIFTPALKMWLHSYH
hα6 + WT hβ2 + hβ3^V9’S nAChR, sequence (Q15825 26-494): as the sequence (Q15825 26-494 N203T) above, with T178N counted along it
hα6 + WT hβ2 + hβ3^V9’S nAChR, sequence (P17787 26-502): as the sequence (P17787 26-502) above
hα6 + WT hβ2 + hβ3^V9’S nAChR, sequence (Q05901 22-458 V273S partner): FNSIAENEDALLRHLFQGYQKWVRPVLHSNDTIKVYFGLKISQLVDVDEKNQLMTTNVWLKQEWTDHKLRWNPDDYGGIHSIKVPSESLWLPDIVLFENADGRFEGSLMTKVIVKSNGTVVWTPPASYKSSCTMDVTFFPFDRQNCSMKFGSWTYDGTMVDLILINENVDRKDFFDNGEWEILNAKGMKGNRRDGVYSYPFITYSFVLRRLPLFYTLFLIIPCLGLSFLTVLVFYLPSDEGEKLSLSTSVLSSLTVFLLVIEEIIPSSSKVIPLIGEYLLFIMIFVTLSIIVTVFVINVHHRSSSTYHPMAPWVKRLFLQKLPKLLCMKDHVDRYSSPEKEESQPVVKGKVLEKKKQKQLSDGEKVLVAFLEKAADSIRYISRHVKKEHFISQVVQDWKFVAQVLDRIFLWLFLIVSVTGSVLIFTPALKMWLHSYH
hα6(I226T) + WT hβ2 + hβ3^V9’S nAChR, sequence (Q15825 26-494 I226T): as the sequence (Q15825 26-494 N203T) above, with T178N, I201T counted along it
hα6(I226T) + WT hβ2 + hβ3^V9’S nAChR, sequence (P17787 26-502): as the sequence (P17787 26-502) above
hα6(I226T) + WT hβ2 + hβ3^V9’S nAChR, sequence (Q05901 25-458 V273S partner limits assumed): as the sequence (Q05901 25-458 V273S partner limits assumed) above

Structure (SMILES): CN1CCC[C@H]1c1cccnc1 [nicotine, L-nicotine]
- peak current response [1]: 15 ± 2 nA and 15-30 nA
- peak current response [2]: 15-30 nA
- Mean (±SE) peak current response [3]: 482 ± 59 nA
- peak current (Imax, mean ± SE) (hα6(A112V) + hβ4 nAChR): 110 ± 22 nA
- current response [4]: did not yield current responses
- peak current (Imax, mean ± SE) (hα6(D92E) + hβ4 nAChR): 19 ± 2 nA
- peak current response ([5]; 3 days after cRNA injection): 15-30 nA
- Mean (±SEM) current response ([5]; 5 days after injection): 123 ± 40 nA
- Mean (±SE) peak current response [6]: 403 ± 79 nA
- peak current response ([7]; 3 days after cRNA injection): 15-30 nA
- Mean (±SEM) current response ([7]; 5 days after injection): 53 ± 12 nA
- current response [8]: did not yield current responses
- current response (direction) [9]: outward reversible currents
- current response (direction) [10]: outward reversible currents
- current response [11]: not obtained
- current response (direction) [12]: outward reversible currents
- current response (direction) (hα6hβ4hβ3^V9’S-nAChR): robust inward current
- EC50 (hα6 + hβ4 nAChR): 7.1 µM
- EC50 (hα6 + hβ4 + hβ3 nAChR): 10 ± 3 µM
